Reference: US20230295201A1 (Gilead Sciences, Inc., priority 2020, published 2023)
Where two headings read alike, the source gives them in different places.

Columns and labels:
Assay type in all cases: cell-based
[1] = test system: DENV2 replicon; test: DENV-2 Huh-7 Rep EC50 (replicon luminescence); conditions: read-out: DENV-2 Huh-7 Rep EC50
Procedure, shortened: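 EC50 derived from luminescence dose-response, normalised to DMSO-only 0% inhibition wells, after 1.5 h with EnduRen substrate. Compounds were first exposed for 48 h at 37° C to DENV2 replicon Huh-7 cells (5,000/well).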

[2] = test system: HRV16; test: HRV16 HELA EC50 (cytopathic effect in H1-HeLa cells)
Procedure, shortened: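 Read-out is luminescent cell viability (CellTiter-Glo) after 96 h of infection at 33 °C, scaled between uninfected and infected-untreated wells. Before infection with titrated virus, compounds went onto H1-HeLa cells as triplicate 3-fold dilution series.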

[3] = test system: RSV strain A2; test: RSV HEp-2 EC50 (infectious cytopathic cell protection assay); conditions: HEp-2 cells, RSV A2, 4 days, read-out: RSV HEp-2 EC50
Procedure, shortened: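 Percent inhibition of RSV-induced cytopathic effect came from remaining cell viability (CellTiter-Glo luminescence) after 4 days at 37° C. Compounds in 3-fold serial dilutions were exposed to an infectious mix of titered A2 virus and HEp-2 cells at 50,000/ml, with 0% and 100% inhibition control standards.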

[4] = test system: RSV A2; test: RSV NHBE EC50 (RSV A2 antiviral assay in normal human bronchial epithelial cells); conditions: NHBE cells, RSV A2, 4 days, read-out: RSV NHBE EC50
[5] = H1-HeLa cells, 96 h, 33° C.; read-out: HRV16 HELA EC50
[6] = Dengue virus, DENV2, Huh-7, 48 h, Huh-7 replicon cells, 48 hours
[7] = 96 h, H1-HeLa cells, 33° C., read-out: HRV16 HELA EC50
[8] = human respiratory syncytial virus, HEp-2, 96 h
[9] = human respiratory syncytial virus, NHBE, 96 h
[10] = Dengue virus, DENV2, Huh-7, 48 h
[11] = human respiratory syncytial virus, 96 h

Structure (SMILES) | EC50 [1, 6] [nM] | EC50 [2, 7] [nM] | EC50 [3, 8] [nM] | EC50 [4, 9] [nM] | also measured
C[C@H](NP(=O)(OC[C@@]1(C#N)O[C@@H](c2ccc3c(N)ncnn23)[C@H](O)[C@@H]1O)Oc1ccccc1)C(=O)OCC1CCCCC1 (single isomer, unassigned) [Example 248] | – | – | – | – | EC50 ([1]; Huh-7 replicon cells, 48 hours): 4720 nM; EC50 [2, 5]: 174 nM; EC50 [3]: 26 nM; EC50 [4]: 2620 nM
CCC(CC)OC(=O)[C@H](C)NP(=O)(OC[C@@]1(C#N)O[C@@H](c2ccc3c(N)ncnn23)[C@H](O)[C@@H]1O)Oc1ccccc1 (stereo partly drawn) [Example 101, (2S)-pentan-3-yl 2-(((((2R,3S,4R,5S)-5-(4-aminopyrrolo[2,1-f][1,2,4]triazin-7-yl)-2-cyano-3,4-dihydroxytetrahydrofuran-2-yl)methoxy)(phenoxy)phosphoryl)amino)propanoate] | > 100000 | 3130 | 1740 | 1240 | –
C[C@H](NP(=O)(OC[C@@]1(C#N)O[C@@H](c2ccc3c(N)ncnn23)[C@H](O)[C@@H]1O)Oc1ccccc1)C(=O)OCC1CC1 (mixture of isomers) [Example 8, (2S)-cyclopropylmethyl 2-(((((2R,3S,4R,5S)-5-(4-aminopyrrolo[2,1-f][1,2,4]triazin-7-yl)-2-cyano-3,4-dihydroxytetrahydrofuran-2-yl)methoxy)(phenoxy)phosphoryl)amino)propanoate] | 37300 | 472 | 182 | 351 | –
CCOC(=O)[C@H](C)N[P@](=O)(OC[C@@]1(C#N)O[C@@H](c2ccc3c(N)ncnn23)[C@H](O)[C@@H]1O)Oc1ccccc1 [Example 29, Ethyl ((S)-(((2R,3S,4R,5S)-5-(4-aminopyrrolo[2,1-f][1,2,4]triazin-7-yl)-2-cyano-3,4-dihydroxytetrahydrofuran-2-yl)methoxy)(phenoxy)phosphoryl)-L-alaninate] | 36100 | 678 | 91 | 932 | –
CCCCCCOC(=O)[C@H](C)NP(=O)(OC[C@@]1(C#N)O[C@@H](c2ccc3c(N)ncnn23)[C@H](O)[C@@H]1O)Oc1ccccc1 (stereo partly drawn) [Example 192, hexyl ((((2R,3S,4R,5S)-5-(4-aminopyrrolo[2,1-f][1,2,4]triazin-7-yl)-2-cyano-3,4-dihydroxytetrahydrofuran-2-yl)methoxy)(phenoxy)phosphoryl)-L-alaninate] | 15900 | 342 | 194 | 21 | –
C[C@H](NP(=O)(OC[C@@]1(C#N)O[C@@H](c2ccc3c(N)ncnn23)[C@H](O)[C@@H]1O)Oc1cccc2ccccc12)C(=O)OC1CCCCC1 (stereo partly drawn) [Example 203, cyclohexyl ((((2R,3S,4R,5S)-5-(4-aminopyrrolo[2,1-f][1,2,4]triazin-7-yl)-2-cyano-3,4-dihydroxytetrahydrofuran-2-yl)methoxy)(naphthalen-1-yloxy)phosphoryl)-L-alaninate] | 4460 | 72 | 31 | 18 | –
C[C@H](NP(=O)(OC[C@@]1(C#N)O[C@@H](c2ccc3c(N)ncnn23)[C@H](O)[C@@H]1O)Oc1ccccc1)C(=O)OCCC(C)(C)C (stereo partly drawn) [Example 251, 3,3-dimethylbutyl ((((2R,3S,4R,5S)-5-(4-aminopyrrolo[2,1-f][1,2,4]triazin-7-yl)-2-cyano-3,4-dihydroxytetrahydrofuran-2-yl)methoxy)(phenoxy)phosphoryl)-L-alaninate] | 3530 | – | 8 | – | –
CCC(CC)COC(=O)[C@H](CC)NP(=O)(OC[C@@]1(C#N)O[C@@H](c2ccc3c(N)ncnn23)[C@H](O)[C@@H]1O)Oc1ccccc1 (mixture of isomers) [Example 88, (2S)-2-ethylbutyl 2-(((((2R,3S,4R,5S)-5-(4-aminopyrrolo[2,1-f][1,2,4]triazin-7-yl)-2-cyano-3,4-dihydroxytetrahydrofuran-2-yl)methoxy)(phenoxy)phosphoryl)amino)butanoate] | 62000 | 1060 | 336 | 36 | –
CCCCCCCCCCCCCCCCCCOC[C@H](COP(=O)(O)OC[C@@]1(C#N)O[C@@H](c2ccc3c(N)ncnn23)[C@H](O)[C@@H]1O)OCc1ccccc1 [Example 96, ((2R,3S,4R,5S)-5-(4-aminopyrrolo[2,1-f][1,2,4]triazin-7-yl)-2-cyano-3,4-dihydroxytetrahydrofuran-2-yl)methyl ((R)-2-(benzyloxy)-3-(octadecyloxy)propyl) hydrogen phosphate] | – | – | – | – | EC50 [1, 10]: > 100000 nM; EC50 [2, 5]: 9350 nM; EC50 [3, 11]: 254 nM; EC50 [4, 11]: 441 nM
C[C@H](NP(=O)(OC[C@@]1(C#N)O[C@@H](c2ccc3c(N)ncnn23)[C@H](O)[C@@H]1O)Oc1ccccc1)C(=O)OC1CCCCC1 (stereo partly drawn) [Example 4, (2S)-cyclohexyl 2-(((((2R,3S,4R,5S)-5-(4-aminopyrrolo[2,1-f][1,2,4]triazin-7-yl)-2-cyano-3,4-dihydroxytetrahydrofuran-2-yl)methoxy)(phenoxy)phosphoryl)amino)propanoate] | – | 510 | 96 | 76 | –
COC(=O)[C@H](C)N[P@](=O)(OC[C@@]1(C#N)O[C@@H](c2ccc3c(N)ncnn23)[C@H](O)[C@@H]1O)Oc1ccccc1 [Example 52, methyl ((S)-(((2R,3S,4R,5S)-5-(4-aminopyrrolo[2,1-f][1,2,4]triazin-7-yl)-2-cyano-3,4-dihydroxytetrahydrofuran-2-yl)methoxy)(phenoxy)phosphoryl)-L-alaninate] | > 47000 | 1250 | 94 | 252 | –
C[C@H](N[P@](=O)(OC[C@@]1(C#N)O[C@@H](c2ccc3c(N)ncnn23)[C@H](O)[C@@H]1O)Oc1ccccc1)C(=O)O[C@H]1CC[C@H](C(C)(C)C)CC1 (single isomer, unassigned) [Example 22] | 5750 | 200 | 103 | 36 | –
CCCCCCCCCCCCCCCCOCCCOP(=O)(O)OC[C@@]1(C#N)O[C@@H](c2ccc3c(N)ncnn23)[C@H](O)[C@@H]1O [Example 149, ((2R,3S,4R,5S)-5-(4-aminopyrrolo[2,1-f][1,2,4]triazin-7-yl)-2-cyano-3,4-dihydroxytetrahydrofuran-2-yl)methyl (3-(hexadecyloxy)propyl) hydrogen phosphate] | – | – | – | – | EC50 [1, 10]: > 50000 nM; EC50 [2, 5]: > 50000 nM; EC50 [3, 11]: 925 nM; EC50 [4, 11]: > 891 nM
C[C@H](NP(=O)(OC[C@@]1(C#N)O[C@@H](c2ccc3c(N)ncnn23)[C@H](O)[C@@H]1O)Oc1ccccc1)C(=O)OCC1CCCCC1 (single isomer, unassigned) [Example 247] | – | 317 | 44 | – | EC50 ([1]; Huh-7 replicon cells, 48 hours): 12000 nM; EC50 [4]: 510 nM
C[C@H](NP(=O)(OC[C@@]1(C#N)O[C@@H](c2ccc3c(N)ncnn23)[C@H](O)[C@@H]1O)Oc1ccccc1)C(=O)OCCC(C)(C)C (single isomer, unassigned) [Example 253] | – | – | – | – | EC50 ([1]; Huh-7 replicon cells, 48 hours): 2780 nM; EC50 [3]: 20 nM; EC50 [4]: 70 nM
CCC(CC)COC(=O)[C@@H](C)NP(=O)(OC[C@@]1(C#N)O[C@@H](c2ccc3c(N)ncnn23)[C@H](O)[C@@H]1O)Oc1ccccc1 (stereo partly drawn) [Example 82, (2R)-2-ethylbutyl 2-(((((2R,3S,4R,5S)-5-(4-aminopyrrolo[2,1-f][1,2,4]triazin-7-yl)-2-cyano-3,4-dihydroxytetrahydrofuran-2-yl)methoxy)(phenoxy)phosphoryl)amino)propanoate] | > 50000 | 9270 | 2510 | 3000 | –
C[C@H](NP(=O)(OC[C@@]1(C#N)O[C@@H](c2ccc3c(N)ncnn23)[C@H](O)[C@@H]1O)Oc1ccccc1)C(=O)OCCC(C)(C)C (single isomer, unassigned) [Example 252] | – | – | 26 | – | EC50 ([1]; Huh-7 replicon cells, 48 hours): 7000 nM; EC50 [4]: 31 nM
C[C@H](NP(=O)(OC[C@@]1(C#N)O[C@@H](c2ccc3c(N)ncnn23)[C@H](O)[C@@H]1O)Oc1ccccc1)C(=O)OCC(C)(C)C (stereo partly drawn) [Example 92, (2S)-neopentyl 2-(((((2R,3S,4R,5S)-5-(4-aminopyrrolo[2,1-f][1,2,4]triazin-7-yl)-2-cyano-3,4-dihydroxytetrahydrofuran-2-yl)methoxy)(phenoxy)phosphoryl)amino)propanoate] | – | 225 | 64 | 73 | –
CCC(C)(C)COC(=O)[C@H](C)NP(=O)(OC[C@@]1(C#N)O[C@@H](c2ccc3c(N)ncnn23)[C@H](O)[C@@H]1O)Oc1ccccc1 (stereo partly drawn) [Example 254, 2,2-dimethylbutyl ((((2R,3S,4R,5S)-5-(4-aminopyrrolo[2,1-f][1,2,4]triazin-7-yl)-2-cyano-3,4-dihydroxytetrahydrofuran-2-yl)methoxy)(phenoxy)phosphoryl)-L-alaninate] | 13000 | – | 17 | 46 | –
